Data on 12 molecules can be found in BindingDB's records for patent US20250270173 (Gilgamesh Pharmaceuticals, 2025).

The target of this test is 5-hydroxytryptamine receptor 2A (Homo sapiens, UniProt P28223). Nature of the test: 5-HT2A Receptor Binding Assay.

As a reminder, the Ki is the equilibrium dissociation constant of an inhibitor or competing ligand from its target.

5-hydroxytryptamine receptor 2A, sequence (P28223 whole entry): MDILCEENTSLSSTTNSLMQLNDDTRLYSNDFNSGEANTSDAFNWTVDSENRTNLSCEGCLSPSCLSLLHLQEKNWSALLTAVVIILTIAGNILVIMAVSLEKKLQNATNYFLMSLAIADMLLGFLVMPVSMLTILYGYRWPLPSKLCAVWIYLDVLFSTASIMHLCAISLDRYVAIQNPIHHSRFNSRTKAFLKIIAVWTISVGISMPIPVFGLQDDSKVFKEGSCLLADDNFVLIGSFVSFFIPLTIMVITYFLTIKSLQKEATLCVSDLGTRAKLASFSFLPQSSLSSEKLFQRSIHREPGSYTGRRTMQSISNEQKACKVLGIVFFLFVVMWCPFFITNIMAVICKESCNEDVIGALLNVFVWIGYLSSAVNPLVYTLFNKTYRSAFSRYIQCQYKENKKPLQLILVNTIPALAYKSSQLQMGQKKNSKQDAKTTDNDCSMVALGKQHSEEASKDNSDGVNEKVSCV

The molecule `COc1cc(C)c(OC)nc1CC(C)N` (configuration not stated) [US20250270173, Compound 5] registered a Ki of 1170 nM.
The value for `COc1cc(Br)c(OC)nc1CC(C)N` (configuration not stated) [US20250270173, Compound 6] was 168 nM; that for `COc1cc(C)c(OC)nc1CCN` [US20250270173, Compound 8] was 1120 nM; that for `COc1cc(Br)c(OC)nc1CCN` [US20250270173, Compound 9] was 99.2 nM.
`CCCCCc1nc(OC)c(CC(N)CC)cc1OC` (configuration not stated) [US20250270173, Compound 11]: the affinity corresponds to a Ki of 273 nM.
As for `CCCCCc1nc(OC)c(CC(N)CC)nc1OC` (configuration not stated) [US20250270173, Compound 12], the figure is 693 nM; as for `CCSc1cc(OC)c(CCN)nc1OC` [US20250270173, Compound 22], 82.8 nM; as for `CCSc1cc(OC)c(CC(C)N)nc1OC` (configuration not stated) [US20250270173, Compound 23], 344 nM.
The molecule `CCSc1cc(OC)c(CC(N)CC)nc1OC` (configuration not stated) [US20250270173, Compound 24] showed a Ki of 649 nM.
The value for `COc1cc(C2CC2)c(OC)nc1CCN` [US20250270173, Compound 26] was 150 nM.
The value for `CCCCCCc1cc(OC)c(CCN)nc1OC` [US20250270173, Compound 29] was 0.91 nM.
As for `CCCc1cc(OC)c(CC(N)CC)nc1OC` (configuration not stated) [US20250270173, Compound 37], the figure is 106 nM.
